{
  "source": "paper PMC5908784",
  "about": "“Extracellular loops 2 and 3 of the calcitonin receptor selectively modify agonist binding and efficacy” (Biochemical Pharmacology, 2018)",
  "assay_in_all_cases": "Heterologous whole cell competition binding",
  "settings_in_all_cases": "heterologous competition of 125I-sCT(8-32), whole cells, mean ± S.E.M., SEM",
  "key": {"hCTR E294A": {"target": "T1, hCTR E294A (Homo sapiens, UniProt P30988, E294A)", "T1 construct": "c-Myc (N); expressed in transfected cells", "T1 sequence (P30988 25-474 E294A)": "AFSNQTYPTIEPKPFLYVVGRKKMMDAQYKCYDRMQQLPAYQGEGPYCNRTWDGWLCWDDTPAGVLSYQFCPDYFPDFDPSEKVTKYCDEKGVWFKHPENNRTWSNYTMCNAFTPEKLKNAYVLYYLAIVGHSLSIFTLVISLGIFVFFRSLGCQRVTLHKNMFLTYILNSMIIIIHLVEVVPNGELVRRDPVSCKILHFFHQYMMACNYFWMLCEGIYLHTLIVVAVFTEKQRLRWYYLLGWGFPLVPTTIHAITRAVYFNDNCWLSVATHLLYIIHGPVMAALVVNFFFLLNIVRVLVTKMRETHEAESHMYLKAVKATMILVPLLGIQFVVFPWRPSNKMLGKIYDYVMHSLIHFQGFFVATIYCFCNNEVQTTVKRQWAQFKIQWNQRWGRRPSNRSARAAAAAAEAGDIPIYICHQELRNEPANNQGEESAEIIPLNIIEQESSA", "how_it_was_run": "(§1)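 Steps: overnight co-incubation of cells, tracer and test ligand; washout of unbound label; gamma counting; Cheng-Prusoff conversion to pKi.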"}, "hCTR K366A": {"target": "T2, hCTR K366A (Homo sapiens, UniProt P30988, K366A)", "T2 construct": "c-Myc (N); expressed in transfected cells", "T2 sequence (P30988 25-474 K366A)": "T1 sequence (P30988 25-474 E294A) with A270E, K342A", "how_it_was_run": "as §1"}, "hCTR P360A": {"target": "T3, hCTR P360A (Homo sapiens, UniProt P30988, P360A)", "T3 construct": "expressed in transfected cells", "T3 sequence (P30988 25-474 P360A)": "T1 sequence (P30988 25-474 E294A) with A270E, P336A", "how_it_was_run": "as §1"}, "hCTR T280A": {"target": "T4, hCTR T280A (Homo sapiens, UniProt P30988, T280A)", "T4 construct": "expressed in transfected cells", "T4 sequence (P30988 25-474 T280A)": "T1 sequence (P30988 25-474 E294A) with T256A, A270E", "how_it_was_run": "as §1"}, "hCTR Y299A": {"target": "T5, hCTR Y299A (Homo sapiens, UniProt P30988, Y299A)", "T5 construct": "c-Myc (N); expressed in transfected cells", "T5 sequence (P30988 25-474 Y299A)": "T1 sequence (P30988 25-474 E294A) with A270E, Y275A", "how_it_was_run": "as §1"}},
  "note": "Residue numbers refer to the chain shown, from its start. Where a SMILES comes first, the peptide text is derived from it. Bridges are numbered along the chain shown (N, C = ends).",
  "data": [
    {"molecule": "CSCC[C@H](NC(=O)CNC(=O)[C@H](CO)NC(=O)[C@H](Cc1ccccc1)NC(=O)[C@H](CCCNC(=N)N)NC(=O)[C@H](Cc1c[nH]cn1)NC(=O)[C@H](Cc1ccccc1)NC(=O)[C@H](CC(N)=O)NC(=O)[C@H](CC(N)=O)NC(=O)[C@H](CC(C)C)NC(=O)[C@H](CC(N)=O)NC(=O)[C@H](CCCNC(=N)N)NC(=O)[C@H](Cc1c[nH]c2ccccc12)NC(=O)[C@H](Cc1ccc(O)cc1)NC(=O)[C@H](C)NC(=O)[C@H](CO)NC(=O)[C@H](CC(C)C)NC(=O)[C@@H](NC(=O)[C@@H]1CSSC[C@H](N)C(=O)N[C@@H](CO)C(=O)N[C@@H](CC(N)=O)C(=O)N[C@@H](CC(C)C)C(=O)N[C@@H](CO)C(=O)N[C@@H]([C@@H](C)O)C(=O)N1)C(C)C)C(=O)NCC(=O)N[C@@H](Cc1ccccc1)C(=O)NCC(=O)N1CCC[C@H]1C(=O)N[C@@H](CCC(=O)O)C(=O)N[C@H](C(=O)N1CCC[C@H]1C(N)=O)[C@@H](C)O", "note": "[pCT] (H-CSNLSTCVLSAYWRNLNNFHRFSGMGFGPETP-NH2; disulfide 1-7)", "values": [
      {"measurement": "Ki", "setting": "hCTR E294A", "value": 11.7, "unit": "nM"},
      {"measurement": "Ki", "setting": "hCTR K366A", "value": 11, "unit": "nM"},
      {"measurement": "Ki", "setting": "hCTR P360A", "value": 50.1, "unit": "nM"},
      {"measurement": "Ki", "setting": "hCTR T280A", "value": 6.31, "unit": "nM"},
      {"measurement": "Ki", "setting": "hCTR Y299A", "value": 46.8, "unit": "nM"}
    ]}
  ]
}
